This test deals with Beta-secretase 1 (Homo sapiens, UniProt P56817). Description: Inhibition of human Beta-secretase 1.

As a reminder, the IC50 is the point on the concentration scale where inhibition reaches its midpoint. Higher therefore signals weaker potency in that assay.

Beta-secretase 1, sequence (P56817 whole entry): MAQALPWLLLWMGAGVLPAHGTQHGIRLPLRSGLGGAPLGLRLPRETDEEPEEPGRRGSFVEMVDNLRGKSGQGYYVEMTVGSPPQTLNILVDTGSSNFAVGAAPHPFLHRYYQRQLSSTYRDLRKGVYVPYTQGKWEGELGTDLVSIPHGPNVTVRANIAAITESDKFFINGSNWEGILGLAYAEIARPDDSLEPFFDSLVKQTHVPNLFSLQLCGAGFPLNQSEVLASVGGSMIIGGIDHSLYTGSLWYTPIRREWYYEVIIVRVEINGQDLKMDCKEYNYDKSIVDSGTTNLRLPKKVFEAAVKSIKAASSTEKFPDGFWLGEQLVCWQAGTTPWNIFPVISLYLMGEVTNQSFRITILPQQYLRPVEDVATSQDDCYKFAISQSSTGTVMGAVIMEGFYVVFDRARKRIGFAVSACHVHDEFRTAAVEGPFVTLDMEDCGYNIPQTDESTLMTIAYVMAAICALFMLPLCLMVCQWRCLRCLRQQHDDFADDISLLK

`CC(=O)N[C@@H](CC(C)C)C(=O)N[C@@H](Cc1ccccc1)[C@@H](O)CC(=O)N[C@@H](CC1CCCCC1)[C@@H](O)CC(=O)N[C@H](C(=O)NCc1ccc(C(=O)O)cc1)C(C)C` (stereo in doubt; 15): half-maximal inhibition (IC50) was put at 0.67 µM.

For `CCC(C)C[C@H](NC(=O)[C@H](CC(C)C)NC(C)=O)[C@@H](O)CC(=O)N[C@@H](Cc1ccccc1)[C@@H](O)CC(=O)N[C@H](C(=O)NCc1ccc(C(=O)O)cc1)C(C)C` (some centres not stated), half-maximal inhibition (IC50) was put at 0.021 µM.

Consider `CC(=O)NCC(=O)N[C@@H](Cc1ccccc1)[C@@H](O)CC(=O)N[C@@H](CC1CCCCC1)[C@@H](O)CC(=O)N[C@H](C(=O)NCc1ccc(C(=O)O)cc1)C(C)C`, for which the 50% inhibitory concentration (IC50) amounted to 9 µM.

In turn, `CC(=O)N[C@@H](CC(C)C)C(=O)N[C@@H](Cc1ccccc1)[C@@H](O)CC(=O)N[C@@H](CC1CCCCC1)[C@@H](O)CC(=O)N[C@H](C(=O)NCc1ccc(C(=O)O)cc1)C(C)C` (stereo in doubt; 13) returned an IC50 of 0.05 µM.

Turning to `CC(=O)N[C@@H](Cc1ccccc1)C(=O)N[C@@H](Cc1ccccc1)[C@@H](O)CC(=O)N[C@@H](CC1CCCCC1)[C@@H](O)CC(=O)N[C@H](C(=O)NCc1ccc(C(=O)O)cc1)C(C)C`, the IC50 was 5.6 µM.

`CC(C)[C@H](NC(=O)C[C@H](O)[C@H](CC1CCCCC1)NC(=O)C[C@H](O)[C@H](Cc1ccccc1)NC(=O)OC(C)(C)C)C(=O)NCc1ccc(C(=O)O)cc1` had an IC50 of over 100 µM.

In turn, `CCC(C)C[C@H](NC(=O)[C@H](CC(C)C)NC(C)=O)[C@@H](O)CC(=O)NC(CC[S+](C)[O-])[C@@H](O)CC(=O)N[C@H](C(=O)NCc1ccc(C(=O)O)cc1)C(C)C` (some centres not stated) registered an IC50 of 34 µM.

`CC(C)[C@H](NC(=O)C[C@H](O)[C@H](CC1CCCCC1)NC(=O)C[C@H](O)[C@H](Cc1ccccc1)NC(=O)[C@@H]1CCCN1)C(=O)NCc1ccc(C(=O)O)cc1` registered an IC50 of 1.3 µM.

Take `CC(C)[C@H](NC(=O)C[C@H](O)[C@H](CC1CCCCC1)NC(=O)C[C@H](O)[C@@H](N)Cc1ccccc1)C(=O)NCc1ccc(C(=O)O)cc1`: the 50% inhibitory concentration (IC50) was over 100 µM.

Compound `CCC(C)C[C@H](NC(=O)[C@H](CC(C)C)NC(C)=O)[C@@H](O)CC(=O)NC(CCSC)[C@@H](O)CC(=O)N[C@H](C(=O)NCc1ccc(C(=O)O)cc1)C(C)C` (some centres not stated) had an IC50 of 0.46 µM.

For `CC(=O)N[C@@H](CCC(=O)O)C(=O)N[C@@H](Cc1ccccc1)[C@@H](O)CC(=O)N[C@@H](CC1CCCCC1)[C@@H](O)CC(=O)N[C@H](C(=O)NCc1ccc(C(=O)O)cc1)C(C)C`, the half-inhibitory concentration (IC50) amounted to 42 µM.

Consider `CCC(C)C[C@H](NC(=O)C[C@H](O)[C@H](Cc1ccccc1)NC(=O)[C@H](CC(C)C)NC(C)=O)[C@@H](O)CC(=O)N[C@H](C(=O)NCc1ccc(C(=O)O)cc1)C(C)C` (some centres not stated), for which it took 0.65 µM to reach half-maximal inhibition (IC50).
